Results as given in article PMC11480511 (Scientific Reports, 2024).

Legend:
[1] = system: melanoma LOX IMVI cell line; test: Annexin V-FITC/PI apoptosis and necrosis assay; format: cell-based, human; conditions: LOX IMVI treated with IC50 concentration
Procedure: Following the manufacturer’s instructions, the Annexin V-FITC Apoptosis Detection Kit (Bio Vision Research Products, USA) was used to analyze cell apoptosis. Briefly, 500 µL of 1X Binding buffer was used to resuspend 1-5 × 10^5 cells that had been harvested by centrifugation. Propidium iodide (PI, 50 mg/ml) and Annexin V-FITC, each administered in 5 µL, were also added. The cells were first incubated for 5 minutes at room temperature in the dark before being analyzed using the Annexin V-FITC binding flow cytometric technique (Ex = 488 nm; Em = 530 nm) with a FITC signal detector (typically FL1) and PI staining with a phycoerythrin emission signal detector (typically FL2). Before exposing adherent cells to Annexin V-FITC, we gently trypsinized and gave them a single wash in serum-containing medium (A.3–5). Cell synchronisation is done using Double-thymidine synchronization method and the used Media is double modifed eagle media (DMEM).
Cell cycle analysis and detection of apoptosis
Annexin V-FITC apoptosis assay
Cell apoptosis were analyzed by the Annexin V-FITC Apoptosis Detection Kit (Bio Vision Research Products, USA). Thereafter, 1-5 x 10^5 cells were collected by centrifugation and resuspend in 500 μl of 1X Binding Buffer. Added 5 μl of Annexin V-FITC and 5 μl of propidium iodide (PI 50mg/ml, optional.). The cells incubated at room temperature for 5 min in the dark; Analyzed by Annexin V-FITC binding flow cytometric method (Ex = 488 nm; Em = 530 nm) using FITC signal detector (usually FL1) and PI staining by the phycoerythrin emission signal detector (usually FL2). For adherent cells, we gently trypsinized and washed cells once with serum-containing media before incubation with Annexin V-FITC (A.3-5). […]

[2] = system: melanoma LOX IMVI cell line; test: Cell cycle analysis, propidium iodide flow cytometry; format: cell-based, human
Procedure: The effect of compound 3i on cell cycle progression of LOX IMVI cell line was evaluated using Propidium Iodide Flow Cytometry Kit to measure the DNA content according to the reported protocols. The LOX IMVI cells used in this work were obtained from the American Type Culture Collection. Cells were cultured in DMEM (Invitrogen/Life Technologies) supplemented with 10% FBS (Hyclone), 10 µg/ml insulin (Sigma), and 1% penicillin-streptomycin. The remaining chemicals and reagents were all from Sigma or Invitrogen. Growth media was removed, cells washed with warm PBS and aspirated. Adhered cells were detached from media by addition of 5 ml 10% trypsin/EDTA and incubated 2 min in the incubator. The suspended cells harvested, aspirated to a falcon tube, centrifuged at 2000 rpm for 5 min. Cell count performed after suspending the cells into a fresh media and stained with trypan blue, counted and used for preparation of the appropriate number of cells.

[3] = LOX IMVI treated at IC50 concentration

SMILES: O=C(O)c1cn(C2CC2)c2cc(N3CCN(C(=O)CCCN4C(=O)S/C(=C\c5ccc(F)cc5)C4=O)CC3)c(F)cc2c1=O [3i]
- Apoptosis Early [1]: 3.03%
- Apoptosis Late [1]: 24.17%
- Apoptosis Total [1]: 38.51%
- Necrosis [1]: 11.31%
- %G0-G1 DNA content [2, 3]: 45.53%
- %G2/M DNA content [2, 3]: 9.41%
- %Pre-G1 DNA content [2, 3]: 38.51%
- %S DNA content [2, 3]: 45.06%
- increase of percentage of cells at pre-G1 ([2]; LOX IMVI, versus control): 20 folds
